In article PMC4763718 (MedChemComm, 2015):

Biological target: T1, cyclin G associated kinase (GAK) (Homo sapiens, UniProt O14976)
T1 sequence (O14976 1-1311): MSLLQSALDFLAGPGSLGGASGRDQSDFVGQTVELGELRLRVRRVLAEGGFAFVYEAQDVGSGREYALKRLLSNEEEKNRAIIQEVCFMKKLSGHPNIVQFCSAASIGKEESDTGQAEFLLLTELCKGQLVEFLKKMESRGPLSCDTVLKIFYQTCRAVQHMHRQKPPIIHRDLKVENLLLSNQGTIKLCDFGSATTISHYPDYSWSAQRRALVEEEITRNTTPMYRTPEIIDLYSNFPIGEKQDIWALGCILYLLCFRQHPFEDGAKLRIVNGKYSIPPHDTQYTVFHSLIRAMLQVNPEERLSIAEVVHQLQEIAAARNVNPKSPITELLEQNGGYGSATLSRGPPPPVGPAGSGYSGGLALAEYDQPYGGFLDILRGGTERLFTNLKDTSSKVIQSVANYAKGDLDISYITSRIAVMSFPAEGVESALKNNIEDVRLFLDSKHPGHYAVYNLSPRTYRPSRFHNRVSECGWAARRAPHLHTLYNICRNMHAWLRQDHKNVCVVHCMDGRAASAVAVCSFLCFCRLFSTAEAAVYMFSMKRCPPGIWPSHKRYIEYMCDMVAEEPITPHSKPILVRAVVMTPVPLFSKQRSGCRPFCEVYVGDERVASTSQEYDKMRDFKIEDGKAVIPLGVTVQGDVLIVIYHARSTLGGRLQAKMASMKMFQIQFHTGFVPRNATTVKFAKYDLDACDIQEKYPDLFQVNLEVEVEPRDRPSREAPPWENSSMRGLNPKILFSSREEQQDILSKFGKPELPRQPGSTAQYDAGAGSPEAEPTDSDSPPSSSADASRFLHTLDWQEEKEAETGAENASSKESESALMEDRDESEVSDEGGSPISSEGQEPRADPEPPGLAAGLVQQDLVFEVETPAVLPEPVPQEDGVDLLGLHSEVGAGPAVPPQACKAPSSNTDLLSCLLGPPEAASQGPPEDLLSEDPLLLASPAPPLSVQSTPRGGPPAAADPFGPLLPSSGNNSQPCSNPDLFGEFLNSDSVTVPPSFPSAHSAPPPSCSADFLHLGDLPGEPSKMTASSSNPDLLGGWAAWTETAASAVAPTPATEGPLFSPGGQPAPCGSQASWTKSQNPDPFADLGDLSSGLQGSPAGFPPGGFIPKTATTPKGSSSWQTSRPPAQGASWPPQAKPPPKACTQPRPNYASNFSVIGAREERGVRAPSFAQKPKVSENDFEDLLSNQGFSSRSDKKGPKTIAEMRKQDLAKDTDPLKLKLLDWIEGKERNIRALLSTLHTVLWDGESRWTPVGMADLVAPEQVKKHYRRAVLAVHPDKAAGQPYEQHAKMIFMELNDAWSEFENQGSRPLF
Assay: KINOMEscan competition binding assay

Row | GAK affinity (in words) | SMILES
1 | reduced the affinity to GAK | COc1ccc(-c2cnc3c(NC(=O)C4CCOCC4)snc3c2)cc1OC [Compound 5i]
2 | reduced the affinity to GAK | COc1ccc(-c2cnc3c(NC(=O)C4CC=CC4)snc3c2)cc1OC [Compound 5g]
3 | completely abolished GAK affinity | CCCCCOc1snc2cc(-c3ccc(OC)c(OC)c3)cnc12 [Compound 8e]
4 | reduced the affinity to GAK | COc1ccc(-c2cnc3c(NC(=O)C4CCCCCC4)snc3c2)cc1OC [Compound 5h]
5 | inactive | COc1ccc(-c2cnc3c(N4CCN(C(=O)c5ccccc5)CC4)snc3c2)cc1OC [Compound 8q]

Row | SMILES | GAK affinity (in words)
6 | CCCCN1CCN(c2snc3cc(-c4ccc(OC)c(OC)c4)cnc23)CC1 [Compound 8m] | did not lead to any improvement in GAK affinity
7 | COc1ccc(-c2cnc3c(N4CCN(C(C)C)CC4)snc3c2)cc1OC [Compound 8l] | did not lead to any improvement in GAK affinity
8 | COc1ccc(-c2cnc3c(N4CCN(c5ccncc5)CC4)snc3c2)cc1OC [Compound 8n] | did not lead to any improvement in GAK affinity

Tested on: J6/JFH(p7-Rluc2A) HCV
Assay: not given
Format: cell-based, hepatitis C virus

Row | SMILES | effect on HCV replication (in words)
9 | CC(C)Oc1snc2cc(-c3ccsc3)cnc12 [Compound 8j] | minimal to no effect
